{"source": "patent US7635491B2", "about": "“Method for administering selenium for treating patients suffering from systemic inflammatory response syndrome (SIRS), and composition for implementing the treatment” (priority 1998, dated 2009)", "test_system": "severe systemic inflammatory response syndrome (SIRS)", "experiment": "Treatment of intensive-care patients with severe SIRS / septic shock by continuous administration of sodium selenite (case reports)", "assay_type": "in vivo, human", "method": "A patient, 75 kg, chronic alcoholic with no history of icteroascitic, hemorrhagic or encephalopathic compensation, was admitted to postoperative intensive care with generalized purulent peritonitis from colonic perforation during an attack of diverticular sigmoiditis.\nHis initial hemodynamics were maintained by perfusion. […] There was a moderate renal insufficiency. An adapted empirical antibiotic therapy was begun, and modified after 48 hours in view of the antiobiograms. At 24 hours severity indexes were IGS II 29, APACHE II 17 and SOFA score was 5. One day after the operation, the situation worsened rapidly with onset of a state of shock with lactic acidosis 5 μmol/l requiring administration of dopamine then rapidly noradrenaline up to 4 mg/h (0.9 μg/kg/min). There was a deterioration of respiratory state requiring increase of the FiO2 because of the onset of an acute adult respiratory distress syndrome (ARDS). As soon as the necessity of noradrenaline administration was recognized, a treatment with sodium selenite by continuous administration was begun at a dose of 4 mg of atomic selenium equivalent over the first 24 hours, followed by continuous administration of sodium selenite at a dose of 1 mg of atomic selenium equivalent for 10 days.\nA patient, depressive, anorexic, 51 kg and 1.75 m tall, was admitted on a tentative diagnosis of drug-induced suicide with ingestion of a large amount of analgesics and sedatives. The diagnosis was rapidly changed to generalized purulent peritonitis from a perforated gastric ulcer. They were transferred to postoperative intensive care. There was also a shock condition requiring perfusion and introduction of catechol amines as noradrenaline and dolbutamine; lactic acidosis at 6 μmol/l. Antibacterial and antifungal antibiotic therapy was performed. Diuresis was maintained under diuretics. One hour after the start of noradrenaline administration, a treatment with sodium selenite by continuous administration was begun at a dose of 4 mg of atomic selenium equivalent over the first 24 hours, followed by continuous administration of sodium selenite at a dose of 1 mg of atomic selenium equivalent for 10 days. At 24 hours the severity indexes were IGS II 44, APACHE II 35. The SOFA score was 8.\nA patient, presenting major alcohol-tobacco addiction (more than 1 liter of wine per day, 2 packets of cigarettes per day), chronic BPCO respiratory insufficiency, stage 2 arteritis of the lower limbs and deterioration in general health for several months with a productive cough, was transferred to intensive care after a short stay in general medicine. At admission there was a respiratory distress requiring emergency intubation-ventilation. Blood gases confirmed major respiratory acidosis. The patient was feverish. There was a hyperleucocytosis of 24 000 leucocytes of which 88% were polymorphonuclear cells. Blood pressure was stable under perfusion, however there were blotches on the knees. There were no coagulation problems nor renal insufficiency. At 24 hours IGS II was 41, APACHE II 26, and SOFA score 8. Lung samples taken by protected telescopic brush and brochoalveolar washing confirmed the diagnosis of community-acquired pneumonia: 47% of cells infected, Haemophilus influenza β-lactamase negative and wild-type streptococcal anginosis.\nThe immediate development was marked by a rapid deterioration of respiratory state with necessity of ventilation at FiO2 100%, PEP 8. In addition, very substantial perfusion was necessary with measurement of pressure by right catheterization. Dopamine had to be administered at 10 μg/kg/min. After 8 hours dopamine administration, a treatment with sodium selenite by continuous administration was begun at a dose of 4 mg of atomic selenium equivalent over the first 24 hours, followed by continuous administration of sodium selenite at a dose of 1 mg of atomic selenium equivalent for 10 days. […]"}
{"smiles": "O=[Se](O)O", "note": "[sodium selenite, Sodium selenite [Na2O3Se]]", "values": [{"measurement": "left intensive care, time after the operation", "setting": "Example 1", "result": 10, "unit": "days"}, {"measurement": "platelet level", "setting": "Example 1, no disseminated intravascular coagulation", "result": "higher than 150 000 platelets/mm^3"}, {"measurement": "extubation, time after the operation", "setting": "Example 2", "result": 20, "unit": "days"}, {"measurement": "platelet level", "setting": "Example 2", "result": 50, "unit": "%"}, {"measurement": "time to regression of the shock condition", "setting": "Example 2: patient, purulent peritonitis, shock, 4 mg atomic selenium equivalent over first 24 hours, then 1 mg for 10 days", "result": 24, "unit": "h"}, {"measurement": "hyperlactatemia, maximum (then reduced as from the second day)", "setting": "Example 3", "result": 10, "unit": "µmol/L"}, {"measurement": "thrombopenia, platelets", "setting": "Example 3, moderate CIVD", "result": 7500, "unit": "platelets/mm^3"}]}
